From patent US20100167397A1, “ENDOCRINE CELL LINES AND METHOD OF USING THE SAME” (KYOWA HAKKO KOGYO CO., LTD., priority 2002, published 2010)
One block for each compound: values may come before it. No end group written: not given here.

Columns and labels:
GPR12 = experiment: Host clone selection: inducible expression of GPR12 (pAGal9-GPR12) by 17β-estradiol, CRE-luciferase readout; type: cell-based; conditions: 24 hours; for rising rate of luciferase activity upon addition of 17β-estradiol: 10 nmol/L, firefly luciferase
Procedure: To the 8 clones was transfected pAGal9-GPR12 [a plasmid for inducible expression of GPR12 which is a constitutively activated G-protein coupled receptor: refer to Example 22 which will be mentioned later] by the above electroporation method using 4 μg to 6×10^6 cells to prepare transformants.
pAGal9-GPR12 was transfected to the 2 clones to prepare stable transformants.

gene expression via CRE = experiment: CRE-luciferase reporter stimulation in Namalwa KJM-1 / KJMGER8 cells carrying pACREpluc or pACRERluc; type: cell-based, human
Procedure: A reporter plasmid pACREpluc was dissolved in a TE buffer so as to make 1 μg/μl and the plasmid was transfected to Namalwa KJM-1 cells by an electroporation method [Cytotechnology, 3, 133 (1990)] using 4 μg to 6×10^6 cells to give transformants.
The transformants were subcultured in RPMI 1640-ITPSG medium containing hygromycin B (300 μg/ml).
In order to confirm whether gene expression via CRE took place, the transformants were stimulated under the following condition using 5′-N-ethylcarboxamide adenosine (NECA: manufactured by Sigma) which is an agonist of type 2a adenosine receptor (A2a), forskolin (manufactured by Sigma) which is an activator for adenylate cyclase or A23187 (manufactured by Research Biochemicals International) which is a calcium ionophore.
Thus, the above stable transformants were dispensed in an amount of 1×10^5 cells per well of a 48-well plate, then NECA (final concentration 100 nmol/L), forskolin (final concentration 100 μmol/L) or A23187 (final concentration 10 μmol/L) was added and stimulation was conducted by incubating in a CO2 incubator for 5 hours.
Accordingly, when the cells are stimulated by any substance, it is believed to be preferred to measure the activity after 6 hours from the stimulation.
After the incubation, firefly luciferase activity in each well was measured using the method mentioned in (4) of Example 18. With regard to a device for the measurement, Micro Lumat LB96P (manufactured by Berthold) was used. Seventeen clones having high activity were selected.
The 17 clones were used, stimulation with NECA was applied by the same manner as in the above (2), comparison with the case where no stimulation with NECA was conducted and 8 clones where luciferase activity rose to an extent of 60-fold or more were selected. Such 8 clones were named GBC1 to GBC8 respectively.
After that, coelenterazine h (Molecular Probes) (final concentration 250 nmol/L) was added to measure the activity of Renilla reniformis luciferase. For the measurement of the activity, a Wallac 1420 ARVOsx Multilable Counter (manufactured by Wallac Berthold Japan) was used. Nine clones having high activity were selected. The 9 clones were named GBCR1 to GBCR9, respectively.
With regard to the 9 clones, stimulation with NECA was conducted and, as compared with the case no stimulation with NECA was done, 2 clones where the activity of Renilla reniformis luciferase increased to an extent of not less than 18-fold were selected. The 2 clones were named GBCR1 and GBCR2, respectively.

GPR43 = biological target: T1, GPR43 (Homo sapiens, UniProt O15552); experiment: Screening ligands or agonists of GPR43 (pAGal9-GPR43 in GBCRC6, Renilla luciferase); type: cell-based; conditions: 100 μmol/L; 6 hours
T1 construct: expressed in transfected cells; host or cells: GBCRC6 (Namalwa KJM-1 derived, co-expressing Gαs-q and Gαs-i)
T1 sequence (O15552 1-330): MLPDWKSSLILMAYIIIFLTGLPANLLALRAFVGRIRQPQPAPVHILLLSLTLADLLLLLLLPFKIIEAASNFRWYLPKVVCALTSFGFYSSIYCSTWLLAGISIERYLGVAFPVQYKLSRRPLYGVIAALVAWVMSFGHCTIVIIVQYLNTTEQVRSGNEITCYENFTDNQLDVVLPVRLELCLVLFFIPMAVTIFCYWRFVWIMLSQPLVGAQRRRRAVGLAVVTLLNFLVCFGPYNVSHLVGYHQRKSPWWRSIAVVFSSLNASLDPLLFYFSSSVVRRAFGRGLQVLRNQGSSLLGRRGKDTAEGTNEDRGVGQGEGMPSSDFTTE
Procedure: According to the method mentioned in (1) of Example 20, the GPR43 gene was prepared by PCR and the gene was inserted in an expression vector pAGal9-d to construct pAGal9-GPR43 which is an inducible expression plasmid of GPR43. With regard to a template, human chromosomal DNA (100 ng; manufactured by Clontech) was used. With regard to the GPR43 gene-specific primers, synthetic DNA having sequences mentioned in SEQ ID NOS: 181 and 182, respectively, were used. A HindIII site and a NotI site were introduced to the above primers, respectively.
PCR-amplified fragment was cleaved with HindIII and NotI to prepare a HindIII-NotI fragment. A plasmid pAGal9-d was cleaved with HindIII and NotI to prepare a HindIII-NotI fragment.
According to the method mentioned in (1) of Example 21, pAGal9-GPR43 was transfected to GBCRC6 to prepare stable transformants.

GPR41 = biological target: T2, GPR41 (Homo sapiens, UniProt O14843); experiment: Screening of ligands or agonists of GPR41 (pAGal9-GPR41 in GBCRC6, Renilla luciferase); type: cell-based; conditions: for induction ratio of the reporters (agonist for GPR41): 100 μmol/L, 6 hours
T2 construct: expressed in transfected cells; host or cells: GBCRC6 (Namalwa KJM-1 derived)
T2 sequence (O14843 1-346): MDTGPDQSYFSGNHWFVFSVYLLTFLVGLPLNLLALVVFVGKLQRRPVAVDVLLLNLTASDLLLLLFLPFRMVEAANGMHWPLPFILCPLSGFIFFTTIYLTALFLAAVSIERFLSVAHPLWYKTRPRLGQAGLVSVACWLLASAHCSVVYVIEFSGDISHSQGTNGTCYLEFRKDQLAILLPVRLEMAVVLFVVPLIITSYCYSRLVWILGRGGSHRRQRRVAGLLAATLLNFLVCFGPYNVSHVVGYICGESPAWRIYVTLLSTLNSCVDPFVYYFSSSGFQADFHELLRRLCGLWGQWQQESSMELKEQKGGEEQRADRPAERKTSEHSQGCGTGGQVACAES
Procedure: With regard to a template, human chromosomal DNA (100 ng; manufactured by Clontech) was used. With regard to the GPR41 gene-specific primers, synthetic DNAs having sequences mentioned in SEQ ID NOS: 183 and 184, respectively, were used. To the above primers, a HindIII site and a NotI site were introduced, respectively. A PCR-amplified fragment was cleaved with HindIII and NotI to prepare a HindIII-NotI fragment. A plasmid […] was cleaved with HindIII and NotI to prepare a HindIII-NotI fragment. The HindIII-NotI fragment derived from PCR fragment and the HindIII-NotI fragment derived from […] were ligated to construct pAGal9-GPR41 which was an inducible expression plasmid of GPR41.

other GPCRs = experiment: Specificity: assay cells to which other GPCRs were transfected; type: cell-based
[1] = test system: GBCRC6 to which control vector (pAGal9-d) was transfected; experiment: Control: GBCRC6 to which control vector (pAGal9-d) was transfected; type: cell-based, human
Description: (§1) According to the method mentioned in (1) of Example 21, pAGal9-G10d was transfected to GBCRC6 to prepare stable transformants. […] It is possible to screen an antagonist for G10d using α-MSH or ACTH as an agonist.

G10d = biological target: T3, G10d (Homo sapiens, UniProt O15218); experiment: Screening of ligands or agonists of G10d (pAGal9-G10d in GBCRC6, Renilla luciferase); type: cell-based; conditions: 6 hours
T3 construct: expressed in transfected cells; host or cells: GBCRC6 (Namalwa KJM-1 derived)
Procedure: According to the method mentioned in (1) of Example 20, the G10d gene was prepared by PCR and the gene was inserted in an expression vector pAGal9-d to construct pAGal9-G10d which is an inducible expression plasmid of G10d. With regard to a template, single-stranded DNAs derived from human spleen were used. With regard to the G10d gene-specific primers, synthetic DNAs having sequences mentioned in SEQ ID NOS: 185 and 186 were used. To the above primers, a HindIII site and a NotI site were introduced, respectively.
A PCR-amplified fragment was cleaved with HindIII and NotI to prepare a HindIII-NotI fragment. A plasmid pAGal9-d was cleaved with HindIII and NotI to prepare a HindIII-NotI fragment.
as §1

CRE reporter in KJMGER8 = experiment: Constitutive activity of GPCR, Method 5 (KJMGER8 co-transfected with pACREpluc, firefly luciferase); type: cell-based, human; conditions: 17β-estradiol 10 nmol/L, 1 day, activity with divided by activity without, control plasmid about 1
Procedure: After the cultivation, firefly luciferase activity was measured. […] It is judged that the higher the induction ratio of the cells to which a GPCR expression plasmid was transfected, the stronger the constitutive activity of the GPCR.

[2] = biological target: T4, melanocortin receptor type 1 (MC1R) (Homo sapiens, UniProt Q01726); experiment: MC1R reporter assay in GBCR2 (pAGal9-MC1R), Renilla reniformis luciferase; type: cell-based; conditions: GBCR2 with pAGal9-MC1R, 17β-estradiol 10 nmol/L 24 hours; various concentrations, 6 hours
T4 construct: expressed in transfected cells; host or cells: GBCR2 (Namalwa KJM-1 derived)
Procedure: One of the plasmids was named pAGal9-MC1R. The nucleotide sequence was determined by the method mentioned in the above (2).
According to the method mentioned in (1) of Example 21, pAGal9-MC1R was transfected to GBCR2 to prepare stable transformants.

T3 sequence (O15218 whole entry): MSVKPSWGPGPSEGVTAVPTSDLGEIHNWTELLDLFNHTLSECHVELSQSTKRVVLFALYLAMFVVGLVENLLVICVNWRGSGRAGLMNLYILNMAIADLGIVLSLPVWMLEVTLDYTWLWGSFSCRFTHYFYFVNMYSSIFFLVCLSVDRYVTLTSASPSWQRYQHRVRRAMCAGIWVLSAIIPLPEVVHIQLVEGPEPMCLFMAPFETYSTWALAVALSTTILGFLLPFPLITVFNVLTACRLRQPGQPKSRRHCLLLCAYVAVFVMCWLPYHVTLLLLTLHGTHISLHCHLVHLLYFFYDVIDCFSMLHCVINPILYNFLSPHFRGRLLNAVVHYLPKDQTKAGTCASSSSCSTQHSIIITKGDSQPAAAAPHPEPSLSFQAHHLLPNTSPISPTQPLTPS
T4 sequence (Q01726 whole entry): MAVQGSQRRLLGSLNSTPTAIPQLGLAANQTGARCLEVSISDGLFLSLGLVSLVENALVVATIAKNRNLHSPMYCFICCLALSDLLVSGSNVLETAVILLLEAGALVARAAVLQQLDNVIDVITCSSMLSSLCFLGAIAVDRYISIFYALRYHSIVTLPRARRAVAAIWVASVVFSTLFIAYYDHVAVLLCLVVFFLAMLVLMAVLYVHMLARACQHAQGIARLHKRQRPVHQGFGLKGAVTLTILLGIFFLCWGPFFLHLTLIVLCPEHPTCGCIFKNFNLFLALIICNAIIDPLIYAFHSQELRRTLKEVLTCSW

Compound: CNc1ccc2oc(C[C@H]3O[C@@]4(CC[C@H]3C)O[C@H]([C@H](C)C(=O)c3ccc[nH]3)[C@H](C)C[C@H]4C)nc2c1C(=O)O [A23187]
- change of firefly luciferase activity (gene expression via CRE; Namalwa KJM-1 with pACREpluc, A23187 10 μmol/L, 5 hours): rarely changed

Compound: CCNC(=O)[C@H]1O[C@@H](n2cnc3c(N)ncnc32)[C@H](O)[C@@H]1O [NECA, 5′-N-ethylcarboxamide adenosine]
- increase of Renilla reniformis luciferase activity versus no stimulation (gene expression via CRE; 2 clones GBCR1 and GBCR2 (KJMGER8 with integrated pACRERluc), NECA 100 nmol/L): not less than 18 fold
- rise of firefly luciferase activity versus no stimulation (gene expression via CRE; 8 clones GBC1 to GBC8 (KJMGER8 with integrated pACREpluc), NECA stimulation): ≥ 60 fold
- increase of firefly luciferase activity (gene expression via CRE; Namalwa KJM-1 with pACREpluc, NECA 100 nmol/L, 5 hours): about 7 fold
- firefly luciferase activity after 24 hours (gene expression via CRE; Namalwa KJM-1 with pACREpluc, compared with highest activity at 6 hours): decreased to an extent of nearly one half
- time after stimulation at which firefly luciferase activity was highest (gene expression via CRE; Namalwa KJM-1 with pACREpluc, measured after 6, 24, 48, 72 and 96 hours): 6 h

Compound: CC(=O)O [acetate]
- induction ratio of the reporter (agonist for GPR43) (GPR43): 9 fold

Compound: CC(=O)O [acetic acid]
- agonist activity to GPR41 (GPR41): did not show an agonist activity
- action on assay cells to which other GPCRs were transfected (other GPCRs): did not act
- induction ratio of the reporter (agonist for GPR43) (GPR43): 4 fold

Compound: C=C[C@@]1(C)CC(=O)[C@]2(O)[C@@]3(C)[C@@H](O)CCC(C)(C)[C@@H]3[C@H](O)[C@H](OC(C)=O)[C@@]2(C)O1 [forskolin]
- increase of firefly luciferase activity (gene expression via CRE; Namalwa KJM-1 with pACREpluc, forskolin 100 μmol/L, 5 hours): about 10 fold

Compound: ACTH: adrenocorticotropic hormone (SYSMEHFRWGKPVGKKRRPVKVYPNGAEDESAEAFPLEF)
- action on GBCRC6 to which control vector (pAGal9-d) was transfected [1]: did not act
- induction ratio of the reporters (agonist for G10d) (G10d; 100 nmol/L of ACTH): 11 fold

Compound: α-MSH: α-melanocyte-stimulating hormone
- action on GBCRC6 to which control vector (pAGal9-d) was transfected [1]: did not act
- induction ratio of the reporters (agonist for G10d) (G10d; 100 μmol/L of α-MSH): 10 fold

The next lines start with results.

- rising rate of luciferase activity upon addition of 17β-estradiol (GPR12; GBC5 with pAGal9-GPR12): 56 fold
- rising rate of luciferase activity upon addition of 17β-estradiol (GPR12; GBC6 with pAGal9-GPR12): 193 fold
- rising rate of luciferase activity upon addition of 17β-estradiol (GPR12; GBC7 with pAGal9-GPR12): 364 fold
- rising rate of Renilla reniformis luciferase activity when 17β-estradiol was added (GPR12; GBCR2 with pAGal9-GPR12): 364 fold
Compound: C[C@]12CC[C@@H]3c4ccc(O)cc4CC[C@H]3[C@@H]1CC[C@@H]2O [17β-estradiol]

- induction ratio of the reporters (agonist for GPR41) (GPR41): 22 fold
Compound: O=C(O)C1CC1 [cyclopropanecarboxylic acid]
- action on assay cells to which other GPCRs were transfected (other GPCRs): did not act

- induction ratio of the reporters (agonist for GPR41) (GPR41): 21 fold
- induction ratio of the reporter (agonist for GPR43) (GPR43): 5 fold
Compound: CCC(=O)O [propionic acid]

- Constitutive Activity (induction ratio) (CRE reporter in KJMGER8): 6.5-fold
Compound: GPR 3

- Constitutive Activity (induction ratio) (CRE reporter in KJMGER8): 26-fold
Compound: GPR 26

- concentration at which MC1R reacts (Renilla luciferase reporter) [2]: very low concentration
Compound: human PAMP-12: peptide consisting of the 9th to 20th amino acid residues from N terminal of PAMP (FRKKWNKWALSR; ends and bridges not checked; UniProt P35318 30-41, looked up, fragment)

- concentration at which MC1R reacts (Renilla luciferase reporter) [2]: very low concentration
Compound: human PAMP: peptide comprising 20 amino acids excised from a precursor protein of adrenomedullin (ARLDVASEFRKKWNKWALSR; ends and bridges not checked; UniProt P35318 22-41, looked up)
